Patent US9573913B2, “Cathepsin cysteine protease inhibitors” (Merck Sharp & Dohme Corp., priority 2013, dated 2017)

Experiments:
human cathepsin K = human cathepsin K (UniProt P43236); assay: Cathepsin K Assay (hrbCat K); assay type: biochemical; details: Z-Leu-Arg-AMC substrate, pH 5.5, 15 min preincubation; read-out: hrbCat K (IP (nM))
Procedure, shortened: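 Human cathepsin K (0.4 nM) was preincubated 15 min at room temperature with compound in 50 mM MES pH 5.5, 2.5 mM EDTA, 2.5 mM DTT and 10% DMSO. Inhibition was fitted to a dose-response model.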

human cathepsin F = molecular target: T1, human cathepsin F (Homo sapiens, UniProt Q9UBX1); assay: Cathepsin F assay (hCat F); assay type: biochemical; details: Z-Phe-Arg-AMC substrate, pH 5.5, 15 min preincubation; read-out: hCat F (IP (nM))
T1 sequence (Q9UBX1 271-484): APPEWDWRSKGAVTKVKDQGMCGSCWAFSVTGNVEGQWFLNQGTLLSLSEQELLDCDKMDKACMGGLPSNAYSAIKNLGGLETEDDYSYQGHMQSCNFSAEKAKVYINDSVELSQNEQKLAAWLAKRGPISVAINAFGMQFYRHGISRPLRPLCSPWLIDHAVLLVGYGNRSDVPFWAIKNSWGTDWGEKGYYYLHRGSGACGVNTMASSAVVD
Procedure, shortened: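 AMC release from Z-Phe-Arg-AMC, added at 8 μM, was monitored fluorometrically (360/460 nm) for 20 min after 10 nM enzyme and compound had been preincubated 15 min at room temperature. Buffer: MES 50 mM pH 5.5, EDTA and DTT 2.5 mM each, 10% DMSO. Compound DMSO dilutions spanned 500–0.025 μM (3-fold). Dose-response fitting gave % inhibition.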

Row | Compound | IC50 (human cathepsin K) [nM] | IC50 (human cathepsin F) [nM]
1 | CC(C)[C@@H](C#N)NC(=O)[C@@H]1C[C@@H](F)CC[C@H]1c1nc(C(C)(C)C)oc1-c1ccc(N2CCS(=N)(=O)CC2)cc1 [Example 172, (1R,2R,5S)-2-(2-(tert-butyl)-5-(4-(1-imino-1-oxidothiomorpholino)phenyl)oxazol-4-yl)-N-((S)-1-cyano-2-methylpropyl)-5-fluorocyclohexane-carboxamide] | 34.4 | ≥ 10000
2 | CN=S1(=O)CCN(c2ccc(-c3oc(C(C)(C)C)nc3[C@@H]3CC[C@H](F)C[C@H]3C(=O)N[C@@H](C)C#N)cc2)CC1 [Example 173, (1R,2R,5S)-2-(2-(tert-butyl)-5-(4-(1-(methylimino)-1-oxidothiomorpholino)phenyl)oxazol-4-yl)-N-((S)-1-cyanoethyl)-5-fluorocyclohexane-carboxamide] | 4.7 | 6900
3 | CN=S1(=O)CCN(c2ccc(-c3oc(C(C)(C)C)nc3[C@@H]3CC[C@H](F)C[C@H]3C(=O)N[C@H](C#N)C(C)C)cc2)CC1 [Example 174, (1R,2R,5S)-2-(2-(tert-butyl)-5-(4-(1-(methylimino)-1-oxidothiomorpholino)phenyl)oxazol-4-yl)-N-((S)-1-cyano-2-methylpropyl)-5-fluorocyclohexane-carboxamide] | 31.3 | ≥ 10000
4 | N#CC1(NC(=O)[C@@H]2CCCC[C@H]2c2nc(C3(c4ccccc4)CC3)sc2-c2ccc(N3CCS(=O)(=O)CC3)cc2)CC1 [Example 175, (1R,2R)-N-(1-cyanocyclopropyl)-2-(5-(4-(1,1-dioxidothiomorpho-lino)phenyl)-2-(1-phenylcyclopropyl)thiazol-4-yl)cyclohexane-carboxamide] | 2.1 | 1000
5 | N#CC1(NC(=O)[C@@H]2C[C@@H](F)CC[C@H]2c2nc(-c3ccc(F)cc3)sc2-c2ccc(N3CCS(=N)(=O)CC3)cc2)CC1 [Example 176, (1R,2R,5S)-N-(1-cyanocyclopropyl)-5-fluoro-2-(2-(4-fluorophenyl)-5-(4-(1-imino-1-oxidothiomorpholino)phenyl)thiazol-4-yl)cyclohexane-carboxamide] | 3.2 | 3330
6 | CN=S1(=O)CCN(c2ccc(-c3sc(-c4ccc(F)cc4)nc3[C@@H]3CC[C@H](F)C[C@H]3C(=O)NC3(C#N)CC3)cc2)CC1 [Example 177, (1R,2R,5S)-N-(1-cyanocyclopropyl)-5-fluoro-2-(2-(4-fluorophenyl)-5-(4-(1-(methylimino)-1-oxidothiomorpholino)phenyl)thiazol-4-yl)cyclohexane-carboxamide] | 3.5 | 3330
7 | N#CC1(NC(=O)[C@@H]2CCCC[C@H]2c2nc(NC3CCCCC3)sc2-c2ccc(N3CCS(=O)(=O)CC3)cc2)CC1 [Example 178, (1R,2R)-N-(1-cyanocyclopropyl)-2-(2-(cyclohexylamino)-5-(4-(1,1-dioxidothiomorpho-lino)phenyl)thiazol-4-yl)cyclohexane-carboxamide] | 41.2 | 1000
8 | N#CC1(NC(=O)[C@@H]2CCCC[C@H]2c2nc(Nc3ccccc3)sc2-c2ccc(N3CCS(=O)(=O)CC3)cc2)CC1 [Example 179, (1R,2R)-N-(1-cyanocyclopropyl)-2-(5-(4-(1,1-dioxidothiomorpho-lino)phenyl)-2-(phenylamino)thia-zol-4-yl)cyclohexane-carboxamide] | 34.6 | 3740
9 | N#CC1(NC(=O)[C@@H]2CCCC[C@H]2c2nc(Nc3ccc(F)cc3)sc2-c2ccc(N3CCS(=O)(=O)CC3)cc2)CC1 [Example 180, (1R,2R)-N-(1-cyanocyclopropyl)-2-(5-(4-(1,1-dioxidothiomorpho-lino)phenyl)-2-((4-fluorophenyl)amino)thiazol-4-yl)cyclohexane-carboxamide] | 43.3 | 1000
10 | N#CC1(NC(=O)[C@@H]2CCCC[C@H]2c2nc(Nc3ccc(F)cc3F)sc2-c2ccc(N3CCS(=O)(=O)CC3)cc2)CC1 [Example 181, (1R,2R)-N-(1-cyanocyclopropyl)-2-(2-((2,4-difluorophenyl)amino)-5-(4-(1,1-dioxidothiomorpho-lino)phenyl)thiazol-4-yl)cyclohexane-carboxamide] | 31.9 | 3490
11 | N#CN=S1(=O)CCN(c2ccc(-c3sc(-c4ccc(F)cc4)nc3[C@@H]3CCCC[C@H]3C(=O)NC3(C#N)CC3)cc2)CC1 [Example 182, (1R,2R)-N-(1-cyanocyclopropyl)-2-(5-(4-(1-(cyanoimino)-1-oxidothiomorpholino)phenyl)-2-(4-fluorophenyl)thiazol-4-yl)cyclohexane-carboxamide] | 2.72 | 3330
12 | N#CC1(NC(=O)[C@@H]2CCCC[C@H]2c2nc(C(F)(F)c3ccccc3)sc2-c2ccc(N3CCS(=O)(=O)CC3)cc2)CC1 [Example 183, (1R,2R)-N-(1-cyanocyclopropyl)-2-(2-(difluoro(phenyl)methyl)-5-(4-(1,1-dioxidothiomorpho-lino)phenyl)thiazol-4-yl)cyclohexane-carboxamide] | 5.7 | 810
13 | N#CC1(NC(=O)[C@@H]2CCCC[C@H]2c2nc(C3(c4ccc(F)cc4)CC3)sc2-c2ccc(N3CCS(=O)(=O)CC3)cc2)CC1 [Example 184, (1R,2R)-N-(1-cyanocyclopropyl)-2-(5-(4-(1,1-dioxidothiomorpho-lino)phenyl)-2-(1-(4-fluorophenyl)cyclo-propyl)thiazol-4-yl)cyclohexane-carboxamide] | 5.2 | 1580
14 | N#CC1(NC(=O)[C@@H]2CCCC[C@H]2c2nc(Oc3ccc(F)cc3)sc2-c2ccc(N3CCS(=O)(=O)CC3)cc2)CC1 [Example 189, (1R,2R)-N-(1-cyanocyclopropyl)-2-(5-(4-(1,1-dioxidothiomorpho-lino)phenyl)-2-(4-fluorophenoxy)thia-zol-4-yl)cyclohexane-carboxamide] | 5.1 | 788
15 | N#CC1(NC(=O)[C@@H]2CCCC[C@H]2c2nc(N)sc2-c2ccc(N3CCS(=O)(=O)CC3)cc2)CC1 [Example 190, (1R,2R)-2-(2-amino-5-(4-(1,1-dioxidothiomorpho-lino)phenyl)thiazol-4-yl)-N-(1-cyanocyclopropyl) cyclohexanecarbox-amide] | 13.2 | 7410
16 | Cc1ccc(-c2nc([C@@H]3CC[C@H](F)C[C@H]3C(=O)N[C@@H](C)C#N)c(-c3ccc(N4CCS(=O)(=O)CC4)cc3)s2)nn1 [Example 195, (1R,2R,5S)-N-((S)-1-cyanoethyl)-2-(5-(4-(1,1-dioxidothiomorpho-lino)phenyl)-2-(6-methylpyridazin-3-yl)thiazol-4-yl)-5-fluorocyclohexane-carboxamide] | 1.4 | 1940
17 | Cc1ccc(-c2nc([C@@H]3CC[C@H](F)C[C@H]3C(=O)NC3(C#N)CC3)c(-c3ccc(N4CCS(=O)(=O)CC4)cc3)s2)nn1 [Example 196, (1R,2R,5S)-N-(1-cyanocyclopropyl)-2-(5-(4-(1,1-dioxidothiomorpho-lino)phenyl)-2-(6-methylpyridazin-3-yl)thiazol-4-yl)-5-fluorocyclohexane-carboxamide] | 2.4 | 2020
18 | N#CC1(NC(=O)[C@@H]2C[C@@H](F)CC[C@H]2c2nc(-c3ccc(C(F)(F)F)nn3)sc2-c2ccc(N3CCS(=O)(=O)CC3)cc2)CC1 [Example 197, (1R,2R,5S)-N-(1-cyanocyclopropyl)-2-(5-(4-(1,1-dioxidothiomorpho-lino)phenyl)-2-(6-(trifluoromethyl)pyridazin-3-yl)thiazol-4-yl)-5-fluorocyclohexane-carboxamide] | 512 | ≥ 10000
19 | N#CC1(NC(=O)[C@@H]2CCCC[C@H]2c2nc(Oc3ccc(F)cc3F)sc2-c2ccc(N3CCS(=O)(=O)CC3)cc2)CC1 [Example 198, (1R,2R)-N-(1-cyanocyclopropyl)-2-(2-(2,4-difluorophenoxy)-5-(4-(1,1-dioxidothiomorpho-lino)phenyl)thiazol-4-yl)cyclohexane-carboxamide] | 4.2 | 1020
20 | CC(C)S(=O)(=O)c1ccc(-c2sc(-c3cncc(F)c3)nc2[C@@H]2CCCC[C@H]2C(=O)NC2(C#N)CC2)cc1 [Example 199, (1R,2R)-N-(1-cyanocyclopropyl)-2-(2-(5-fluoropyridin-3-yl)-5-(4-(isopropylsulfonyl)phenyl)thiazol-4-yl)cyclohexane-carboxamide] | 25.8 | 846
21 | N#CC1(NC(=O)[C@@H]2CCCC[C@H]2c2nc(NS(=O)(=O)c3ccccc3)sc2-c2ccc(N3CCS(=O)(=O)CC3)cc2)CC1 [Example 200, (1R,2R)-N-(1-cyanocyclopropyl)-2-(5-(4-(1,1-dioxidothiomorpho-lino)phenyl)-2-(phenylsulfonamido)thiazol-4-yl)cyclohexane-carboxamide] | 116 | ≥ 10000
22 | CN(c1nc([C@@H]2CCCC[C@H]2C(=O)NC2(C#N)CC2)c(-c2ccc(N3CCS(=O)(=O)CC3)cc2)s1)S(=O)(=O)c1ccccc1 [Example 201, (1R,2R)-N-(1-cyanocyclopropyl)-2-(5-(4-(1,1-dioxidothiomorpho-lino)phenyl)-2-(N-methylphenylsulfon-amido)thiazol-4-yl)cyclohexane-carboxamide] | 1.2 | 712
